Laboratory results published in patent US12624026B2, “Inhibitors of SARM1” (Disarm Therapeutics, Inc., priority 2018, dated 2026).
pIC50: −log10 of the molar value.

Biological target: T1, SARM1 SAM-TIR (Homo sapiens, UniProt Q6SZW1)
T1 construct: a fragment of the SARM1 molecule encompassing the SAM and TIR domains; made in house; host or cells: NRK1-HEK293T cells, transiently transfected; the cleared, unpurified lysate was used as the enzyme
T1 sequence (Q6SZW1 409-724 limits assumed): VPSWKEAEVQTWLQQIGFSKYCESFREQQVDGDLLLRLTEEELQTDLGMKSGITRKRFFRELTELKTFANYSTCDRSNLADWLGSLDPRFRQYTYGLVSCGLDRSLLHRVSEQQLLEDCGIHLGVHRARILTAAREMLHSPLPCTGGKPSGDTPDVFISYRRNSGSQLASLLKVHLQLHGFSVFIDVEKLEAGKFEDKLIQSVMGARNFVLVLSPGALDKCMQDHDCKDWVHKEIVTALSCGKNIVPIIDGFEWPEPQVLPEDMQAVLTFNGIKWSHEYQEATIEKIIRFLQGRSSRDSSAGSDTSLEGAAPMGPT
Test: biochemical
Conditions: SAM-TIR lysate 5 μg/mL, 2 h pre-incubation, 5 μM NAD+, RapidFire MS of NAD+ and ADPR; read-out: SARM1 IC50
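Note: inhibition of SARM1 SAM-TIR NADase activity, i.e. NAD+ cleavage, using lysate of NRK1-HEK293T cells overexpressing the SAM-TIR fragment.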

Structure (SMILES)	pIC50
NC(=O)c1c(O)nsc1Nc1ccccc1OC(F)(F)F [Example 21]	5.30 to 6.00
CN(C)CCn1sc(Nc2ccccc2C(F)(F)F)c(C#N)c1=O [Example 33]	> 6.00
COc1cccc(Cl)c1Nc1sn(C)c(=O)c1C#N [Example 35]	> 6.00
N#Cc1c(Nc2ccccc2C(F)(F)F)sn(CCC(N)=O)c1=O [Example 36]	> 6.00
N#Cc1c(Nc2ccccc2C(F)(F)F)sn(CC(N)=O)c1=O [Example 38]	> 6.00
N#Cc1c(Nc2ccccc2C(F)(F)F)sn(CCO)c1=O [Example 39]	> 6.00
Cn1sc(Nc2c(Cl)ccc3c2CCO3)c(C#N)c1=O [Example 40]	> 6.00
Cn1sc(Nc2ccc(Cl)c3c2CCO3)c(C#N)c1=O [Example 41]	> 6.00
CC(O)Cn1sc(Nc2ccccc2C(F)(F)F)c(C#N)c1=O (centres unmarked) [Example 43]	> 6.00
C[C@@H](CO)n1sc(Nc2ccccc2C(F)(F)F)c(C#N)c1=O [Example 44]	> 6.00
C[C@H](CO)n1sc(Nc2ccccc2C(F)(F)F)c(C#N)c1=O [Example 47]	> 6.00
N#Cc1c(Nc2cccc(Br)c2C(F)(F)F)s[nH]c1=O [Example 49]	> 6.00
Cn1sc(Nc2c(Br)ccc3ncccc23)c(C#N)c1=O [Example 50]	> 6.00
COCCn1sc(Nc2ccccc2C(F)(F)F)c(C#N)c1=O [Example 51]	> 6.00
Cn1sc(Nc2cccc3ncccc23)c(C#N)c1=O [Example 53]	> 6.00
CS(=O)(=O)CCn1sc(Nc2ccccc2C(F)(F)F)c(C#N)c1=O [Example 55]	> 6.00
Cn1ccc(Cn2sc(Nc3ccccc3C(F)(F)F)c(C#N)c2=O)n1 [Example 56]	> 6.00
COCCn1sc(Nc2c(OC)cccc2C(F)(F)F)c(C#N)c1=O [Example 57]	> 6.00
COC[C@H](C)n1sc(Nc2ccccc2C(F)(F)F)c(C#N)c1=O [Example 59]	> 6.00
N#Cc1c(Nc2ccccc2C(F)(F)F)sn(C[C@@H]2CCOC2)c1=O [Example 60]	> 6.00

Structure (SMILES)	pIC50
N#Cc1c(Nc2ccccc2C(F)(F)F)sn(CC2(O)CC2)c1=O [Example 61]	> 6.00
N#Cc1c(Nc2ccccc2C(F)(F)F)sn(Cc2ccccn2)c1=O [Example 62]	> 6.00
N#Cc1c(Nc2ccccc2C(F)(F)F)sn(C[C@H]2CCOC2)c1=O [Example 63]	> 6.00
CC(C)(O)Cn1sc(Nc2ccccc2C(F)(F)F)c(C#N)c1=O [Example 64]	> 6.00
CCn1sc(Nc2ccccc2C(F)(F)F)c(C#N)c1=O [Example 65]	> 6.00
Cn1sc(Nc2c(Cl)ccc3c2CCCO3)c(C#N)c1=O [Example 66]	> 6.00
CC(C)(O)Cn1sc(Nc2c(F)cccc2Cl)c(C#N)c1=O [Example 67]	> 6.00
COCCCn1sc(Nc2ccccc2C(F)(F)F)c(C#N)c1=O [Example 71]	> 6.00
Cn1sc(Nc2c(Cl)ccc3c2CCN3)c(C#N)c1=O [Example 72]	> 6.00
COCCn1sc(Nc2c(Cl)cccc2Cl)c(C#N)c1=O [Example 73]	> 6.00
COCC(C)n1sc(Nc2ccccc2C(F)(F)F)c(C#N)c1=O (centres unmarked) [Example 74]	> 6.00
Cn1sc(Nc2cccc3c2CCCO3)c(C#N)c1=O [Example 75]	> 6.00
N#Cc1c(Nc2ccccc2C(F)(F)F)sn(CC2CCCO2)c1=O (centres unmarked) [Example 76]	> 6.00
Cn1sc(Nc2c(Cl)ccc3c2CCCN3)c(C#N)c1=O [Example 77]	> 6.00
N#Cc1c(Nc2ccccc2C(F)(F)F)sn(CCC(=O)N2CCC(N3CCC3)CC2)c1=O [Example 78]	> 6.00
N#Cc1c(Nc2c(Cl)cccc2Cl)sn(CCC(N)=O)c1=O [Example 79]	> 6.00
N#Cc1c(Nc2ccccc2C(F)(F)F)sn(Cc2ccccc2)c1=O [Example 80]	> 6.00
Cc1ccc2ncccc2c1Nc1sn(C)c(=O)c1C#N [Example 81]	> 6.00
COc1ccc2nc(C)ccc2c1Nc1sn(C)c(=O)c1C#N [Example 82]	> 6.00
N#Cc1c(Nc2ccccc2C(F)(F)F)sn(CCc2ccccc2)c1=O [Example 83]	> 6.00

Structure (SMILES)	pIC50
COc1ccc2ncccc2c1Nc1sn(C)c(=O)c1C#N [Example 84]	> 6.00
Cn1sc(Nc2ccc(Cl)c3c2CCCO3)c(C#N)c1=O [Example 85]	> 6.00
COCCn1sc(Nc2c(Cl)ccc3ncccc23)c(C#N)c1=O [Example 86]	> 6.00
CCCn1sc(Nc2ccccc2C(F)(F)F)c(C#N)c1=O [Example 87]	> 6.00
COc1ccc(Cn2sc(Nc3ccccc3)c(C#N)c2=O)cc1 [Example 88]	> 6.00
C[C@H](c1ccccc1)n1sc(Nc2ccccc2C(F)(F)F)c(C#N)c1=O [Example 89]	> 6.00
COCCn1sc(Nc2c(Cl)cccc2C(F)(F)F)c(C#N)c1=O [Example 90]	> 6.00
Cc1ccc2c(Nc3sn(C)c(=O)c3C#N)cccc2n1 [Example 91]	> 6.00
N#Cc1c(Nc2ccccc2C(F)(F)F)sn(Cc2n[nH]c3ccccc23)c1=O [Example 92]	> 6.00
COc1cccc(C)c1Nc1sn(C)c(=O)c1C#N [Example 93]	> 6.00
C[C@@H](c1ccccc1)n1sc(Nc2ccccc2C(F)(F)F)c(C#N)c1=O [Example 94]	> 6.00
COCCn1sc(Nc2cccc3ncccc23)c(C#N)c1=O [Example 95]	> 6.00
COC(C)(C)Cn1sc(Nc2c(Cl)cccc2Cl)c(C#N)c1=O [Example 96]	> 6.00
COC(C)(C)Cn1sc(Nc2ccccc2C(F)(F)F)c(C#N)c1=O [Example 97]	> 6.00
COCCn1sc(Nc2ccccc2C(C)(C)C)c(C#N)c1=O [Example 98]	> 6.00
CN(C)CCn1sc(Nc2c(Cl)cccc2Cl)c(C#N)c1=O [Example 99]	> 6.00
COc1cccc(Cl)c1Nc1s[nH]c(=O)c1C#N [Example 100]	> 6.00
CC(C)(O)Cn1sc(Nc2c(Cl)cccc2Cl)c(C#N)c1=O [Example 101]	> 6.00
COc1cccc(C(F)(F)F)c1Nc1s[nH]c(=O)c1C#N [Example 103]	> 6.00

Other lines, results leading:

pIC50	Structure (SMILES)
5.30 to 6.00	N#Cc1c(O)nsc1Nc1ccccc1 [Example 1]
> 6.00	N#Cc1c(O)nsc1Nc1ccccc1Cl [Example 2]
5.30 to 6.00	Cc1ccc(Nc2snc(O)c2C#N)cc1 [Example 3]
< 5.30	CC(C)c1ccc(Nc2snc(O)c2C#N)cc1 [Example 4]
5.30 to 6.00	N#Cc1c(O)nsc1Nc1ccc(Cl)cc1 [Example 5]
5.30 to 6.00	N#Cc1c(O)nsc1Nc1ccc(Cl)c(Cl)c1 [Example 8]
> 6.00	N#Cc1c(O)nsc1Nc1ccc(Cl)cc1Cl [Example 9]
5.30 to 6.00	N#Cc1c(O)nsc1Nc1cc(Cl)cc(Cl)c1 [Example 10]
5.30 to 6.00	N#Cc1c(O)nsc1Nc1ccccc1F [Example 11]
5.30 to 6.00	N#Cc1c(O)nsc1Nc1ccc(C(F)(F)F)cc1 [Example 13]
5.30 to 6.00	COc1ccccc1Nc1snc(O)c1C#N [Example 14]
> 6.00	N#Cc1c(O)nsc1Nc1ccccc1OC(F)(F)F [Example 15]
> 6.00	N#Cc1c(O)nsc1Nc1c(Cl)cccc1Cl [Example 16]
> 6.00	N#Cc1c(O)nsc1Nc1cccc(Cl)c1Cl [Example 17]
5.30 to 6.00	NC(=O)c1c(O)nsc1Nc1cccc(Cl)c1Cl [Example 18]
> 6.00	N#Cc1c(O)nsc1Nc1cc(Cl)ccc1Cl [Example 19]
< 5.30	N#Cc1c(O)nsc1Nc1cccnc1 [Example 20]
5.30 to 6.00	Cc1cccc(C)c1Nc1snc(O)c1C#N [Example 22]
> 6.00	CSc1ccccc1Nc1snc(O)c1C#N [Example 23]
< 5.30	N#Cc1c(O)nsc1NCc1ccccc1 [Example 24]

pIC50	Structure (SMILES)
> 6.00	CS(=O)(=O)c1ccccc1Nc1snc(O)c1C#N [Example 25]
> 6.00	N#Cc1c(O)nsc1Nc1cccc2ccccc12 [Example 26]
5.30 to 6.00	N#Cc1c(O)nsc1Nc1ccc2ccccc2c1 [Example 28]
5.30 to 6.00	N#Cc1c(O)nsc1Nc1ccc2cccnc2c1 [Example 29]
< 5.30	CN(c1ccccc1C(F)(F)F)c1snc(O)c1C#N [Example 30]
> 6.00	Cn1sc(Nc2ccccc2Cl)c(C#N)c1=O [Example 32]
> 6.00	N#Cc1c(Nc2cccc(Cl)c2Cl)sn(CCO)c1=O [Example 34]
> 6.00	Cn1sc(Nc2cccc(Cl)c2Cl)c(C#N)c1=O [Example 37]
> 6.00	Cc1ccc2c(Nc3sn(C)c(=O)c3C#N)c(Cl)ccc2n1 [Example 42]
> 6.00	Cn1sc(Nc2c(F)cccc2Cl)c(C#N)c1=O [Example 45]
> 6.00	Cn1sc(Nc2c(Cl)cccc2Cl)c(C#N)c1=O [Example 46]
> 6.00	Cn1sc(Nc2c(Cl)ccc3c2cnn3C)c(C#N)c1=O [Example 48]
> 6.00	Cn1sc(Nc2c(Cl)ccc3ncccc23)c(C#N)c1=O [Example 52]
> 6.00	C[C@@H](c1ccccc1)n1sc(Nc2cccc(Cl)c2Cl)c(C#N)c1=O [Example 54]
> 6.00	COCCn1sc(Nc2cccc(Cl)c2Cl)c(C#N)c1=O [Example 58]
> 6.00	N#Cc1c(Nc2c(Cl)cccc2Cl)sn(CCO)c1=O [Example 68]
> 6.00	Cn1sc(Nc2ccc(Cl)c3c2cnn3C)c(C#N)c1=O [Example 69]
> 6.00	COCCn1sc(Nc2ccc(Cl)cc2C(F)(F)F)c(C#N)c1=O [Example 70]
> 6.00	N#Cc1c(Nc2c(F)cccc2Cl)s[nH]c1=O [Example 102]
